Where a name gives a salt, the structure may show the parent alone.

For the first experiment, the system named is XBP1s-luc 293 LUC. As to the kind of experiment: cellular PD assay, XBP1s-LUC reporter (Example 903). The note with it: Table 1; read-out: XBP1s-luc 293 LUC (IC50). The format is cell-based. As for the experimental part: Inhibition of IRE1α RNase activity was determined in an enzyme assay that measured cleavage of the XBP1 stem loop by autophosphorylated IRE1α. This assay format was chosen to ensure that inhibitors of either the IRE1α kinase or the RNase domains would be identified. Binding to the ATP pocket and inhibition of IRE1α kinase activity are not necessarily required to inhibit the RNase activity. Compounds were also profiled in cellular assays by direct measurement of XBP s (B-DNA assay) or by quantification of the luciferase signal in HT1080 XBP1-Luc, which carries a luciferase fusion that is only in frame and expressed from the spliced XBP1 transcript.
Biological activity of Formula I or I′ compounds was measured by an IRE1 biochemical binding assay (Example 901), a biochemical RNase assay (Example 902), a cellular PD assay, XBP1s-LUC reporter (Example 903), and an IRE1α-based inhibition of multiple myeloma (MM) cell proliferation assay.
All of the exemplary Formula I or I′ compounds in Tables 1 and 2 were made and characterized by LCMS [M+H]^+ (liquid chromatography mass spectroscopy) with detection of parent ion. All of the exemplary Formula I compounds in Tables 1 and 2 were prepared according to the procedures of the Schemes, General Procedures, and Examples. All of the exemplary Formula I or I′ compounds in Tables 1 and 2 were tested for binding to IRE1 (inositol requiring enzyme 1 alpha) and biological activity according to the assays and protocols of Example 901-903. Exemplary Formula I or I′ compounds in Tables 1 and 2 have the following structures, corresponding IUPAC names (ChemBioDraw, Version 12.0.2, CambridgeSoft Corp., Cambridge Mass.), and biological activity. Where more than one name is associated with a Formula I or I′ compound or intermediate in Tables 1 and 2 and the Experimental Procedures, the chemical structure shall define the compound. Assignment of configuration at chiral centers in separated stereoisomers may be tentative, and depicted in Tables 1 and 2 structures for illustrative purposes, before stereochemistry is definitively established, such as from x-ray crystallographic data. In some cases, stereoisomers are separated and tested for biological activity before the stereochemistry of the separated stereoisomers is determined; and stereochemistry in some instances was inferred based on structure-activity relationship (SAR) knowledge from previous compounds. In some cases, the compounds are tested as racemic or diastereomeric mixtures. Where more than one potency value is entered on a row, separated stereoisomers represented by the structure and name on that row were tested. Exemplary compounds of Formula I or I′ in Table 3 can be prepared using methods known in the art or according to procedures similar to those described in the Schemes, General Procedures, and Examples 101-500. Biological activities of compounds in Table 3 can be tested in biological assays, for example, those in Examples 901, 902 and 903 described herein.
On to `CCC(=O)Nc1cccc2c(Oc3ncccc3-c3ccnc(N[C@H]4CCCNC4)n3)c(C)ccc12` [Example 173, (S)—N-(6-Methyl-5-((3-(2-(piperidin-3-ylamino)pyrimidin-4-yl)pyridin-2-yl)oxy)naphthalen-1-yl)propionamide], for which the IC50 stood at 226 nM.
With `Cc1ccc2c(NCCC3CC3)cccc2c1Oc1ncccc1-c1ccnc(N[C@H]2CCCNC2)n1` [Example 224, (S)-4-(2-((5-((2-Cyclopropylethyl)amino)-2-methylnaphthalen-1-yl)oxy)pyridin-3-yl)-N-(piperidin-3-yl)pyrimidin-2-amine], the IC50 amounted to 177 nM.
For `Cc1ccc2c(NCc3ncsc3C)cccc2c1Oc1ncccc1-c1ccnc(N[C@H]2CCCNC2)n1` [Example 346, (S)-4-(2-((2-Methyl-5-(((5-methylthiazol-4-yl)methyl)amino)naphthalen-1-yl)oxy)pyridin-3-yl)-N-(piperidin-3-yl)pyrimidin-2-amine], the IC50 amounted to 136 nM.
Consider `Cc1ccc2c(N3CCC(C)(C)C3=O)cccc2c1Oc1ncccc1-c1ccnc(N[C@H]2CCCNC2)n1` [Example 238, (S)-3,3-Dimethyl-1-(6-methyl-5-((3-(2-(piperidin-3-ylamino)pyrimidin-4-yl)pyridin-2-yl)oxy)naphthalen-1-yl)pyrrolidin-2-one], for which the IC50 was found to be 275 nM.
The same measure, in the same setting: with `Cc1ccc2c(-c3ccccn3)cccc2c1Oc1ncccc1-c1ccnc(N[C@H]2CCCNC2)n1` [Example 353, (S)-4-(2-((2-Methyl-5-(pyridin-2-yl)naphthalen-1-yl)oxy)pyridin-3-yl)-N-(piperidin-3-yl)pyrimidin-2-amine] the figure was 133 nM; with `Cc1ccc2c(NCc3ccccn3)c(F)ccc2c1Oc1ncccc1-c1ccnc(N[C@H]2CCCNC2)n1` [Example 296, (S)-4-(2-((6-Fluoro-2-methyl-5-((pyridin-2-ylmethyl)amino)naphthalen-1-yl)oxy)pyridin-3-yl)-N-(piperidin-3-yl)pyrimidin-2-amine], 220 nM.
For the compound `Cc1ccc2c(NS(=O)(=O)C3CCC3)cccc2c1Oc1ncccc1-c1ccnc(N[C@H]2CCCNC2)n1` [Example 107, (S)—N-(6-Methyl-5-((3-(2-(piperidin-3-ylamino)pyrimidin-4-yl)pyridin-2-yl)oxy)naphthalen-1-yl)cyclobutanesulfonamide hydrochloride], the IC50 was 252 nM.
The same measure, in the same setting: with `Cc1ccc2c(Oc3ncccc3-c3ccnc(N[C@H]4CCCNC4)n3)c(C)ccc2c1NC(=O)C1CC1` [Example 284, (S)—N-(2,6-Dimethyl-5-((3-(2-(piperidin-3-ylamino)pyrimidin-4-yl)pyridin-2-yl)oxy)Naphthalen-1-yl)cyclopropanecarboxamide] the figure was 98.2 nM.
Take `Cc1ccc2c(NS(=O)(=O)Cc3cscn3)cccc2c1Oc1ncccc1-c1ccnc(N[C@H]2CCCNC2)n1` [Example 156, (S)—N-(6-Methyl-5-((3-(2-(piperidin-3-ylamino)pyrimidin-4-yl)pyridin-2-yl)oxy)naphthalen-1-yl)-1-(thiazol-4-yl)methanesulfonamide]: the IC50 stood at 157 nM.
As to `Cc1ccc2c(NC(=O)C3CC3C(F)(F)F)cccc2c1Oc1ncccc1-c1ccnc(N[C@H]2CCCNC2)n1` (single isomer, unassigned) [Example 227], the IC50 turned out to be 493 nM.
As for `Cc1ccc2c(NC(=O)c3cccc(C(C)(C)C#N)c3)cccc2c1Oc1ncccc1-c1ccnc(N[C@H]2CCCNC2)n1` [Example 101, (S)-3-(2-Cyanopropan-2-yl)-N-(6-methyl-5-((3-(2-(piperidin-3-ylamino)pyrimidin-4-yl)pyridin-2-yl)oxy)naphthalen-1-yl)benzamide], the 50% inhibitory concentration (IC50) was determined as 102 nM.
Turning to `Cc1ccc2c(NC(=O)CC(C)C)cccc2c1Oc1ncccc1-c1ccnc(N[C@H]2CCCNC2)n1` [Example 188, (S)-3-Methyl-N-(6-methyl-5-((3-(2-(piperidin-3-ylamino)pyrimidin-4-yl)pyridin-2-yl)oxy)naphthalen-1-yl)butanamide], the IC50 is 141 nM.
As for `Cc1ccc2c(NC(=O)[C@@H]3CCCC3C)cccc2c1Oc1ncccc1-c1ccnc(N[C@H]2CCCNC2)n1` (single isomer, unassigned) [Example 373], the IC50 came to 193 nM.
For the compound `Cc1ccc2c(NCC[C@@H](C)O)cccc2c1Oc1ncccc1-c1ccnc(N[C@H]2CCCNC2)n1` (single isomer, unassigned) [Example 201], the IC50 turned out to be 133 nM.
For the compound `Cc1ccc2c(NC(=O)C(Cl)Cl)cccc2c1Oc1ncccc1-c1ccnc(N[C@H]2CCCNC2)n1` [Example 338, (S)-2,2-Dichloro-N-(6-methyl-5-(3-(2-(piperidin-3-ylamino)pyrimidin-4-yl)pyridin-2-yloxy)naphthalen-1-yl)acetamide], the IC50 came out at 161 nM.
On the same count and under the same terms, with `Cc1ccn(-c2cccc3c(Oc4ncccc4-c4ccnc(N[C@H]5CCCNC5)n4)c(C)ccc23)n1` [Example 250, (S)-4-(2-((2-methyl-5-(3-methyl-1H-pyrazol-1-yl)naphthalen-1-yl)oxy)pyridin-3-yl)-N-(piperidin-3-yl)pyrimidin-2-amine] the figure was 258 nM; with `CC[C@@H](C)C(=O)Nc1cccc2c(Oc3ncccc3-c3ccnc(N[C@H]4CCCNC4)n3)c(C)ccc12` [Example 204, (R)-2-methyl-N-(6-methyl-5-((3-(2-(((S)-piperidin-3-yl)amino)pyrimidin-4-yl)pyridin-2-yl)oxy)naphthalen-1-yl)butanamide], 449 nM.
For `CC[C@@H]1CCN(c2cccc3c(Oc4ncccc4-c4ccnc(N[C@H]5CCCNC5)n4)c(C)ccc23)C1=O` (single isomer, unassigned) [Example 266], the IC50 is 121 nM.
The same measure, in the same setting: next, `Cc1ccc2c(N3CCC4(CC4)C3=O)cccc2c1Oc1ncccc1-c1ccnc(N[C@H]2CCCNC2)n1` [Example 297, (S)-5-(6-Methyl-5-((3-(2-(piperidin-3-ylamino)pyrimidin-4-yl)pyridin-2-yl)oxy)naphthalen-1-yl)-5-azaspiro[2.4]heptan-4-one]: 173 nM.
On the same count and under the same terms, next, `Cc1ccc2c(NC(=O)[C@H]3CC34CC4)cccc2c1Oc1ncccc1-c1ccnc(N[C@H]2CCCNC2)n1` (single isomer, unassigned) [Example 217]: 55 nM; `Cc1ccc2c(NC(=O)Cc3cccc(F)c3)cccc2c1Oc1ncccc1-c1ccnc(N[C@H]2CCCNC2)n1` [Example 193, (S)-2-(3-Fluorophenyl)-N-(6-methyl-5-((3-(2-(piperidin-3-ylamino)pyrimidin-4-yl)pyridin-2-yl)oxy)naphthalen-1-yl)acetamide]: 86 nM; `CC[C@H]1CCN(c2cccc3c(Oc4ncccc4-c4ccnc(N[C@@H]5CNC[C@H](C)C5)n4)c(C)ccc23)C1=O` (single isomer, unassigned) [Example 332]: 194 nM.
As for `Cc1ccc2c(NCC[C@H](C)O)cccc2c1Oc1ncccc1-c1ccnc(N[C@H]2CCCNC2)n1` (single isomer, unassigned) [Example 202], the IC50 was determined as 123 nM.

Staying with this experiment, now noted: Table 2; read-out: XBP1s-luc 293 LUC (IC50).
Regarding `Cc1ccc2c(NS(=O)(=O)CC(C)C(F)(F)F)c(F)ccc2c1Oc1ncccc1-c1ccnc(N[C@H]2CCCNC2)n1` (single isomer, unassigned) [Example 454, hydrochloride], the IC50 worked out at 24 nM.
On to `COCCS(=O)(=O)Nc1c(F)ccc2c(Oc3ncccc3-c3ccnc(N[C@@H]4CNC[C@H](C)C4)n3)c(C)ccc12` [Example 431, N-[2-Fluoro-6-methyl-5-[[3-[2-[[(3S,5R)-5-methyl-3-piperidyl]amino]pyrimidin-4-yl]-2-pyridyl]oxy]-1-naphthyl]-2-methoxy-ethanesulfonamide hydrochloride], for which the IC50 is 34 nM.
As to `Cc1ccc2c(NS(=O)(=O)CC3(F)CC3)c(F)ccc2c1Oc1ncccc1-c1ccnc(N[C@@H]2CNC[C@H](C)C2)n1` [Example 487, N-(2-Fluoro-6-methyl-5-((3-(2-(((3S,5R)-5-methylpiperidin-3-yl)amino)pyrimidin-4-yl)pyridin-2-yl)oxy)naphthalen-1-yl)-1-(1-fluorocyclopropyl)methanesulfonamide hydrochloride], the IC50 was 9 nM.
For `CCO[C@@H](CNc1cccc2c(Oc3ncccc3-c3ccnc(N[C@H]4CCCNC4)n3)c(C)ccc12)C(F)(F)F` [Example 445, 4-(2-((5-(((S)-2-Ethoxy-3,3,3-trifluoropropyl)amino)-2-methylnaphthalen-1-yl)oxy)pyridin-3-yl)-N—((S)-piperidin-3-yl)pyrimidin-2-amine hydrochloride], the IC50 was 78 nM.

The IC50 is the point on the concentration scale where inhibition reaches its midpoint.
